Measurements: publication PMC10005332, “It Takes Two to Tango, Part II: Synthesis of A-Ring Functionalised Quinones Containing Two Redox-Active Centres with Antitumour Activities” (Molecules, 2023)
Where two headings read alike, the source gives them in different places.

What was measured:
[1] = tested on: K-562 (human chronic myeloid leukaemia); assay: MTT cytotoxicity assay, K-562; format: cell-based; conditions: for IC50: Homo sapiens, K562, MTT, 72 h exposure, three independent experiments, read-out: Cytotoxic activity IC50 (95% CI) K-562; for Selectivity index K-562: ratio of cytotoxicity L929 / K-562
Method in brief: (§1)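 Cells grown in RPMI 1640 or DMEM with 10% FBS at 37 °C, 5% CO2, treated 72 h with DMSO-dissolved compounds in triplicate. Doxorubicin as positive control.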

[2] = tested on: PC3 (human prostate adenocarcinoma); assay: MTT cytotoxicity assay, PC3; format: cell-based
Method in brief: as §1

[3] = tested on: KG1 (human acute myeloid leukaemia); assay: MTT cytotoxicity assay, KG1; format: cell-based; conditions: for IC50: Homo sapiens, MTT, 72 h exposure, three independent experiments, read-out: Cytotoxic activity IC50 (95% CI) KG1; for Selectivity index KG1: ratio of cytotoxicity L929 / KG1
Method in brief: as §1

[4] = tested on: SNB-19 (human astrocytoma); assay: MTT cytotoxicity assay, SNB-19; format: cell-based
Method in brief: as §1

[5] = tested on: HL60 (human pro-myelocytic leukaemia); assay: MTT cytotoxicity assay, HL60; format: cell-based; conditions: for IC50: MTT, 72 h exposure, three independent experiments, read-out: Cytotoxic activity IC50 (95% CI) HL60
Method in brief: as §1

[6] = tested on: RAJI (human Burkitt’s lymphoma); assay: MTT cytotoxicity assay, RAJI; format: cell-based; conditions: for IC50: Homo sapiens, Raji, 72 h, MTT, 72 h exposure, three independent experiments, read-out: Cytotoxic activity IC50 (95% CI) RAJI; for Selectivity index RAJI: ratio of cytotoxicity L929 / RAJI
Method in brief: as §1

[7] = tested on: HCT-116 (human colorectal carcinoma); assay: MTT cytotoxicity assay, HCT-116; format: cell-based
Method in brief: as §1

B16 (murine melanoma) = assay: MTT cytotoxicity assay, B16; format: cell-based; conditions: for IC50: Mus musculus, MTT, 72 h exposure, three independent experiments, read-out: Cytotoxic activity IC50 (95% CI) B16; for Selectivity index B16: ratio of cytotoxicity L929 / B16
Method in brief: as §1

[8] = tested on: A549 (human lung carcinoma); assay: MTT cytotoxicity assay, A549; format: cell-based; conditions: for IC50: Homo sapiens, A549, MTT, 72 h exposure, three independent experiments, read-out: Cytotoxic activity IC50 (95% CI) A549; for Selectivity index A549: ratio of cytotoxicity L929 / A549
Method in brief: as §1

[9] = MTT cytotoxicity assay, L929 control line; format: cell-based, mouse; conditions: mouse, L929 fibroblast cells (non-tumoral control line), 72 h exposure, read-out: Cytotoxic activity IC50 (95% CI) L929
Method in brief: as §1

[10] = tested on: L929 cells (non-tumoral mouse fibroblast); assay: MTT cytotoxicity assay, L929 control line; format: cell-based; conditions: 72 h exposure, read-out: Cytotoxic activity IC50 (95% CI) L929
Method in brief: as §1

[11] = tested on: HL60 (human pro-myelocytic leukaemia); set-up: method as in PMID 34778772; conditions: ratio L929 / HL60; * data previously described; cited from earlier work
[12] = tested on: HCT-116 (human colorectal carcinoma); set-up: method as in PMID 34778772; conditions: ratio L929 / HCT-116; * data previously described; cited from earlier work
[13] = tested on: SNB-19 (human astrocytoma); set-up: method as in PMID 34778772; conditions: ratio L929 / SNB-19; * data previously described; cited from earlier work
[14] = tested on: PC3 (human prostate adenocarcinoma); set-up: method as in PMID 34778772; conditions: ratio L929 / PC3; * data previously described; cited from earlier work

SMILES: O=C1C(=O)c2ccccc2C2=C1CC(Cn1cc(CNC3=CC(=O)c4cc5ccccc5cc4C3=O)nn1)O2 (centres unmarked) [Compound 20e, 2-((4-(((1,4-dioxo-1,4-dihydroanthracen-2-yl)amino)methyl)-1H-1,2,3-triazol-1-yl)methyl)-2,3-dihydronaphtho[1,2-b]furan-4,5-dione]
- IC50 [1]: 7.58 µM
- Selectivity index K-562 [1]: 2.1
- IC50 ([2]; Homo sapiens, MTT, 72 h exposure, three independent experiments, read-out: Cytotoxic activity IC50 (95% CI) PC3): 17.6 µM
- Selectivity index PC3 ([2]; ratio of cytotoxicity L929 / PC3): 0.9
- IC50 [3]: 37 µM
- Selectivity index KG1 [3]: 0.4
- IC50 ([4]; Homo sapiens, SNB-19, MTT, 72 h exposure, three independent experiments, read-out: Cytotoxic activity IC50 (95% CI) SNB-19): 7.87 µM
- Selectivity index SNB-19 ([4]; ratio of cytotoxicity L929 / SNB-19): 2.0
- IC50 ([5]; Homo sapiens, HL-60, 72 h): 1.6 µM
- IC50 [5]: 1.57 µM
- Selectivity index HL60 ([5]; ratio of cytotoxicity L929 / HL60): 10.1
- IC50 [6]: 5.26 µM
- Selectivity index RAJI [6]: 3.0
- IC50 ([7]; Homo sapiens, HCT-116, 72 h, MTT, 72 h exposure, three independent experiments, read-out: Cytotoxic activity IC50 (95% CI) HCT-116): 7.2 µM
- Selectivity index HCT-116 ([7]; ratio of cytotoxicity L929 / HCT-116): 2.2
- IC50 (B16 (murine melanoma)): 9.57 µM
- Selectivity index B16 (B16 (murine melanoma)): 1.7
- IC50 [8]: 12.7 µM
- Selectivity index A549 [8]: 1.3
- IC50 at 72 h [9]: 15.9 µM
- IC50 [10]: 15.9 µM

SMILES: COc1cccc2c1C(=O)c1c(O)c3c(c(O)c1C2=O)C[C@@](O)(C(=O)CO)C[C@@H]3O[C@H]1C[C@H](N)[C@H](O)[C@H](C)O1 [DOXO, doxorubicin, reference compound]
- Selectivity index HL60 [11]: 86.0 *
- Selectivity index HCT-116 [12]: 8.2 *
- IC50 [1]: 0.91 µM
- Selectivity index K-562 [1]: 1.9
- IC50 [3]: 0.38 µM
- Selectivity index KG1 [3]: 4.5
- IC50 [6]: 2.33 µM
- Selectivity index RAJI [6]: 0.7
- Selectivity index SNB-19 [13]: 1.4 *
- Selectivity index PC3 [14]: 2.3 *
- IC50 (B16 (murine melanoma)): 0.06 µM
- Selectivity index B16 (B16 (murine melanoma)): 30.2
- IC50 [8]: 0.57 µM
- Selectivity index A549 [8]: 3.0
